Measured values as given in PubChem BioAssay AID1918942 (Molecular Pharmacology Branch, DTP, NCI, 2023).
pIC50: −log10 of the molar value. “And” between values parts separate entries of the source, which are not always exact repeats. Identical values can stand only once.

System: 743489-274-T-PDC complex spheroid viability
Test: Anticancer human tumor 743489-274-T-PDC patient-derived renal cell carcinoma cell line growth inhibition
Conditions: for viability, T/C: stronger effect = lower value
Outline: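 Multicellular complex spheroids of tumor cells with human endothelial cells (HUVEC) and mesenchymal stem cells; the LSD1 inhibitor iadademstat was combined with standard-of-care or investigational agents. Top concentration at or near clinical Cmax, half-log dilutions; final DMSO ≤0.25%.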

[1] = curve of first compound, second compound 0.1 µM
[2] = curve of first compound, second compound 0.316 µM
[3] = curve of first compound, second compound 1 µM
[4] = curve of first compound, second compound 3.16 µM
[5] = curve of first compound, second compound 10 µM
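Also: spheroids exposed to compounds for 7 days before readout.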
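For viability, T/C in this document: 100% = DMSO vehicle control wells.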

What does the source list for `NC1CC1c1ccc(-c2cccc(O)c2)cc1` (centres undefined)?
viability, T/C (compound 0.316 µM): 103% [middle of 25 runs]; pIC50 (compound alone, run of 12/07/2021): < 5.00

How did the pIC50 [1] turn out when `Nc1ccccc1NC(=O)c1ccc(CNC(=O)OCc2cccnc2)cc1` + NC1CC1c1ccc(-c2cccc(O)c2)cc1 was run?
The pIC50 was 6.17.

What about the pIC50 [2] of the same compound?
Its pIC50 is 6.11.

And the pIC50 [3]?
The pIC50 was 6.19.

And the pIC50 [4]?
The pIC50 was 6.00.

What about the pIC50 [5] of the same compound?
Its pIC50 is 5.88.

And the viability, T/C (second compound 0.1 µM, first compound 0.00949 µM)?
The viability, T/C was 93.2%.

And the viability, T/C (second compound 0.1 µM, first compound 0.03 µM)?
Its viability, T/C is 88.5%.

What about the viability, T/C (second compound 0.1 µM, first compound 0.0949 µM) of the same compound?
The viability, T/C was 87.5%.

What about the viability, T/C (second compound 0.1 µM, first compound 0.3 µM) of the same compound?
Its viability, T/C is 62.6%.

What about the viability, T/C (second compound 0.1 µM, first compound 0.949 µM) of the same compound?
Its viability, T/C is 45.8%.

And the viability, T/C (second compound 0.1 µM, first compound 3 µM)?
The viability, T/C was 29.2%.

What about the viability, T/C (second compound 0.316 µM, first compound 0.00949 µM) of the same compound?
Its viability, T/C is 95.7%.

And the viability, T/C (second compound 0.316 µM, first compound 0.03 µM)?
The viability, T/C was 86.8%.

What about the viability, T/C (second compound 0.316 µM, first compound 0.0949 µM) of the same compound?
Its viability, T/C is 84.5%.

What about the viability, T/C (second compound 0.316 µM, first compound 0.3 µM) of the same compound?
The viability, T/C was 65.8%.

What about the viability, T/C (second compound 0.316 µM, first compound 0.949 µM) of the same compound?
Its viability, T/C is 45.5%.

What about the viability, T/C (second compound 0.316 µM, first compound 3 µM) of the same compound?
The viability, T/C was 40.3%.

And the viability, T/C (second compound 1 µM, first compound 0.00949 µM)?
The viability, T/C was 98.6%.

And the viability, T/C (second compound 1 µM, first compound 0.03 µM)?
Its viability, T/C is 87.5%.

What about the viability, T/C (second compound 1 µM, first compound 0.0949 µM) of the same compound?
Its viability, T/C is 83.4%.

And the viability, T/C (second compound 1 µM, first compound 0.3 µM)?
The viability, T/C was 62.3%.

What about the viability, T/C (second compound 1 µM, first compound 0.949 µM) of the same compound?
The viability, T/C was 43.2%.

What about the viability, T/C (second compound 1 µM, first compound 3 µM) of the same compound?
Its viability, T/C is 24.6%.

What about the viability, T/C (second compound 3.16 µM, first compound 0.00949 µM) of the same compound?
The viability, T/C was 92.8%.

And the viability, T/C (second compound 3.16 µM, first compound 0.03 µM)?
The viability, T/C was 84.5%.

And the viability, T/C (second compound 3.16 µM, first compound 0.0949 µM)?
Its viability, T/C is 81.6%.

What about the viability, T/C (second compound 3.16 µM, first compound 0.3 µM) of the same compound?
Its viability, T/C is 72.5%.

What about the viability, T/C (second compound 3.16 µM, first compound 0.949 µM) of the same compound?
Its viability, T/C is 49%.

What about the viability, T/C (second compound 3.16 µM, first compound 3 µM) of the same compound?
Its viability, T/C is 36.5%.

And the viability, T/C (second compound 10 µM, first compound 0.00949 µM)?
The viability, T/C was 95.5%.

What about the viability, T/C (second compound 10 µM, first compound 0.03 µM) of the same compound?
Its viability, T/C is 87.5%.

And the viability, T/C (second compound 10 µM, first compound 0.0949 µM)?
Its viability, T/C is 77.9%.

What about the viability, T/C (second compound 10 µM, first compound 0.3 µM) of the same compound?
The viability, T/C was 70.1%.

And the viability, T/C (second compound 10 µM, first compound 0.949 µM)?
The viability, T/C was 58.4%.

What about the viability, T/C (second compound 10 µM, first compound 3 µM) of the same compound?
The viability, T/C was 35.4%.

What does the source list for `CC1(C)CCC(CN2CCN(c3ccc(C(=O)NS(=O)(=O)c4ccc(NCC5CCOCC5)c([N+](=O)[O-])c4)c(Oc4cnc5[nH]ccc5c4)c3)CC2)=C(c2ccc(Cl)cc2)C1`?
viability, T/C (compound 0.0316 µM): 90.8% and 100%; viability, T/C (compound 0.1 µM): 108%; viability, T/C (compound 0.316 µM): 104% and 109%; viability, T/C (compound 1 µM): 113% and 111%; viability, T/C (compound 3.16 µM): 128% and 106%; viability, T/C (compound 10 µM): 120% and 122%; pIC50 (curve of compound): < 5.00

Which results are given for `O=C(c1cc(Cc2n[nH]c(=O)c3ccccc23)ccc1F)N1CCN(C(=O)C2CC2)CC1` + NC1CC1c1ccc(-c2cccc(O)c2)cc1?
pIC50 [1]: < 5.00; pIC50 [2]: < 5.00; pIC50 [3]: < 5.00; pIC50 [4]: < 5.00; pIC50 [5]: < 5.00; viability, T/C (second compound 0.1 µM, first compound 0.0316 µM): 112%; viability, T/C (second compound 0.1 µM, first compound 0.1 µM): 115%; viability, T/C (second compound 0.1 µM, first compound 0.316 µM): 106%; viability, T/C (second compound 0.1 µM, first compound 1 µM): 113%; viability, T/C (second compound 0.1 µM, first compound 3.16 µM): 95.7%; viability, T/C (second compound 0.1 µM, first compound 10 µM): 92.5%; viability, T/C (second compound 0.316 µM, first compound 0.0316 µM): 105%; viability, T/C (second compound 0.316 µM, first compound 0.1 µM): 110%; viability, T/C (second compound 0.316 µM, first compound 0.316 µM): 132%; viability, T/C (second compound 0.316 µM, first compound 1 µM): 97.4%; viability, T/C (second compound 0.316 µM, first compound 3.16 µM): 107%; viability, T/C (second compound 0.316 µM, first compound 10 µM): 115%; viability, T/C (second compound 1 µM, first compound 0.0316 µM): 117%; viability, T/C (second compound 1 µM, first compound 0.1 µM): 104%; viability, T/C (second compound 1 µM, first compound 0.316 µM): 114%; viability, T/C (second compound 1 µM, first compound 1 µM): 93.8%; viability, T/C (second compound 1 µM, first compound 3.16 µM): 93.3%; viability, T/C (second compound 1 µM, first compound 10 µM): 94.7%; viability, T/C (second compound 3.16 µM, first compound 0.0316 µM): 98.1%; viability, T/C (second compound 3.16 µM, first compound 0.1 µM): 103%; viability, T/C (second compound 3.16 µM, first compound 0.316 µM): 117%; viability, T/C (second compound 3.16 µM, first compound 1 µM): 106%; viability, T/C (second compound 3.16 µM, first compound 3.16 µM): 100%; viability, T/C (second compound 3.16 µM, first compound 10 µM): 99.3%; viability, T/C (second compound 10 µM, first compound 0.0316 µM): 118%; viability, T/C (second compound 10 µM, first compound 0.1 µM): 121%; viability, T/C (second compound 10 µM, first compound 0.316 µM): 120%; viability, T/C (second compound 10 µM, first compound 1 µM): 120%; viability, T/C (second compound 10 µM, first compound 3.16 µM): 95.8%; viability, T/C (second compound 10 µM, first compound 10 µM): 94.2%
